Experimental data published in patent publication US20250270619A1, “COMPOSITIONS, KITS AND METHODS FOR DIRECT AMPLIFICATION FROM CRUDE BIOLOGICAL SAMPLES” (LIFE TECHNOLOGIES CORPORATION, priority 2021, published 2025).

Test system: SARS-Cov-2 virus particles
Assay: RT-qPCR screening of surfactant treatment solutions for disruption of SARS-CoV-2 virus particles
Details: for effect of heating the virus-surfactant mixture on Cq values (compatibility with RT-qPCR): then 92° C. for 5 minutes
[1] = Example 1, 2X concentration per surfactant, 30 minutes ambient, without heating
[2] = Example 2, surfactant 0.02-0.08%, absence of a heating step

Row | Compound | disruption of virus particles (Cq vs virus in Tris-EDTA buffer) [1] | effect of heating the virus-surfactant mixture on Cq values (compatibility with RT-qPCR) (Example 1, 30 minutes ambient) | other results
1 | N-(Alkyl C10-C16)-N,N-dimethylglycine betaine [Empigen BB] | effective at disrupting the virus particles |  | 
2 | CCCCCCCCCCCC[N+](C)(C)C.[Br-] [DoTAB] | ineffective at disrupting the virus particles |  | 
3 | Benzalkonium Chloride [BZK] | effective at disrupting the virus particles |  | effect on downstream RT-qPCR (Example 2, surfactant 0.08%): inhibitory to downstream RT-qPCR
4 | O=S(=O)([O-])CCC[n+]1ccccc1 [NDSB201] | ineffective at disrupting the virus particles |  | 
5 | C[C@H](CCC(=O)NCCC[N+](C)(C)CC(O)CS(=O)(=O)[O-])[C@H]1CC[C@H]2[C@@H]3[C@H](O)C[C@@H]4C[C@H](O)CC[C@]4(C)[C@H]3C[C@H](O)[C@]12C (stereo partly drawn) [CHAPSO, 3-[(3-cholamidopropyl)dimethylammonio]-2-hydroxy-1-propanesulfonate] | ineffective at disrupting the virus particles | compatible with RT-qPCR | 
6 | nonyl phenoxypolyethoxylethanol [NP-40 alternative] | effective at disrupting the virus particles |  | 
7 | CCCCCCCCCCCCCC[N+](C)(C)CCCS(=O)(=O)[O-] [Zwittergent 3-14, n-Tetradecyl-N,N-dimethyl-3-ammonio-1-propanesulfonate] | effective at disrupting the virus particles |  | disruption of virus particles (Cq vs virus in Tris-EDTA buffer) [2]: effective at disrupting the virus particles
8 | CCCCCCCCCCCC[N+](C)(C)[O-] [LDAO, N,N Dimethydodecylamine-N-oxide] | effective at disrupting the virus particles |  | disruption of virus particles (Cq vs virus in Tris-EDTA buffer) [2]: effective at disrupting the virus particles; virus disruption vs incubation time (Example 3, 0.02% LDAO solution (2X), 0 to 60 minutes room temperature, no heating): rapidly disrupted the virus particles
9 | CCCCCCCCCC[N+](C)(C)C.[Br-] [DeTAB] |  | compatible with RT-qPCR | 
10 | CCCCCCCCCCCC(=O)OCCOCCOCCOCCOCCOCCOCCOCCOCCOCCOCCOCCOCCOCCOCCOCCOCCOCCOCCOCCOCC(OCCOCCOCCOCCOCCOCCOCCOCCOCCOCCOCCOCCOCCOCCOCCOCCOCCOCCOCCOCCO)C1OCC(OCCOCCOCCOCCOCCOCCOCCOCCOCCOCCOCCOCCOCCOCCOCCOCCOCCOCCOCCOCCO)C1OCCOCCOCCOCCOCCOCCOCCOCCOCCOCCOCCOCCOCCOCCOCCOCCOCCOCCOCCOCCO (stereo not drawn) [Tween 20, polysorbate 20] | effective at disrupting the virus particles |  | 
11 | CCCCCCCC/C=C\CCCCCCCC(=O)OCCOCC(OCCO)C1OCC(OCCO)C1OCCO (stereo not drawn) [Tween 80] | ineffective at disrupting the virus particles | compatible with RT-qPCR | 
12 | CCCCCCCCCCCC[N+](C)(C)CC.[Br-] [EDMAB, Dodecylethyldimethylammonium bromide] | ineffective at disrupting the virus particles | compatible with RT-qPCR | 
13 | CCCCCCCCCC[N+](C)(C)CCCCCCCCCC.[Br-] [DDAB, Didecyldimethylammonium bromide] | effective at disrupting the virus particles | higher average Cq values | 
